Test results published in US5962314A, “Calcium receptor-active molecules” (priority 1997, dated 1999).
“Also recorded” adds a separate entry of the source. Like-named read-outs stand apart in the source and are kept apart here. Values belong to the compound of their own block, whether it stands above or below them.

Key:
Assay type in all cases: cell-based
[1] = molecular target: T1, parathyroid cell calcium receptor (Bos taurus, UniProt P35384); experiment: cell-based; conditions: for effect on mobilization elicited by extracellular divalent cations / effect on [Ca2+]i at low extracellular Ca2+: 100 μM; for effect on [Ca2+]i at low extracellular Ca2+: 0.5 mM extracellular Ca2+; for EC50: increases in intracellular calcium, fura-2 loaded cells; for relative potency, in words: parathyroid cells
T1 sequence (P35384 20-1085): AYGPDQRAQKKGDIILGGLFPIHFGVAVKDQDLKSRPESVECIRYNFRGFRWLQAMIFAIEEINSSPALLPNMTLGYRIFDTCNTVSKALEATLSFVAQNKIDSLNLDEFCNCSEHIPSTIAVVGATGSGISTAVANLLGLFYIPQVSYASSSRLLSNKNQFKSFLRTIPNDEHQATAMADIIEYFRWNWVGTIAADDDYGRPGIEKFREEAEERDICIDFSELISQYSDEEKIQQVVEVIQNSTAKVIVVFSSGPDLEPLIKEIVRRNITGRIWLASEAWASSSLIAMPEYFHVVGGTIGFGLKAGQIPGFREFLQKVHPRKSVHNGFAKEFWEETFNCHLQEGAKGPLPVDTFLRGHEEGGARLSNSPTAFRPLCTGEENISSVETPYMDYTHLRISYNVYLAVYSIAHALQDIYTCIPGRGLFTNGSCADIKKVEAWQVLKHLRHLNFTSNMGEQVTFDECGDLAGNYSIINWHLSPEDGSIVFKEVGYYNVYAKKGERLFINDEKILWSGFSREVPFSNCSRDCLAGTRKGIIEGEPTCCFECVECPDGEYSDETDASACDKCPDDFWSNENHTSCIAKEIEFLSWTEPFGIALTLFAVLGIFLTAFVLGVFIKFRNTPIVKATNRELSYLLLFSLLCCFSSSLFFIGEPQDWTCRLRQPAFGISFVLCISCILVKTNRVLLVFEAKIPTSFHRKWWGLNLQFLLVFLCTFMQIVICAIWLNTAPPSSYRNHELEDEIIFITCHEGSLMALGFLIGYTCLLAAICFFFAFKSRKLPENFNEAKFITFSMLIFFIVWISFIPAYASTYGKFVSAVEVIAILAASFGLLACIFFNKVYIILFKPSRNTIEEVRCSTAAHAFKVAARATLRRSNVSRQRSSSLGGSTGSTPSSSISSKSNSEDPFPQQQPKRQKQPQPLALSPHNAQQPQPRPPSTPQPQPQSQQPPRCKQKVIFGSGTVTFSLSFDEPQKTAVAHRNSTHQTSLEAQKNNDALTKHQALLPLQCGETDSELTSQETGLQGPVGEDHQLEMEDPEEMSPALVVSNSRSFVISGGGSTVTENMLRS

[2] = test system: Ca2+ influx in parathyroid cells; experiment: Ca2+ influx in bovine parathyroid cells; conditions: for effect on [Ca2+]i: 100 to 1000 μM, 2 mM CaCl2; for effect on extracellular Ca2+-elicited increases in [Ca2+]i: pretreatment
[3] = molecular target: T2, bovine parathyroid cell calcium receptor (Bos taurus, UniProt P35384); experiment: Cl- current in Xenopus oocytes expressing BoPCaR 1; conditions: for effect on inward currents: EGTA 100 μM, 9AC, A23187
T2 construct: expressed in transfected cells; host or cells: Xenopus laevis oocytes injected with BoPCaR 1 cRNA
T2 sequence (P35384 20-1085): T1 sequence (P35384 20-1085)
Procedure: Several pharmacological and biochemical criteria were used to identify this clone as encoding a bona fide bovine parathyroid Ca^2+ receptor. […] These responses increased markedly over a period of one to four days after injection of the eggs with cRNA prepared from the BoPCaR 1 cDNA. Furthermore, the ranges of the concentrations of the two cations eliciting this response were very similar to those shown previously to act on bovine parathyroid cells in vitro.
Xenopus oocytes were injected with BoPCaR 1, the 5.3 Kb cDNA encoding a bovine parathyroid cell calcium receptor as described in Example 25. After two to three days, Cl^- currents were examined in the oocytes using a two-electrode voltage clamp.
Xenopus oocytes were injected with BoPCaR 1 as described in Example 25. After two to three days, Cl^- currents were examined in the oocytes using two electrode voltage clamp.

Structure (SMILES): N=C(N)NCCC[C@H](N)C(=O)NCCCNCCCNCCCCCNC(=O)[C@H](CC(N)=O)NC(=O)Cc1ccc(O)cc1O [Argiotoxin-636]
effect on response to extracellular Ca2+ [1]: did potentiate cytosolic Ca^2+
effect on [Ca2+]i ([1]; 400 μM): did not elicit increases in [Ca^2+ ]
effect on [Ca2+]i ([1]; 100 to 300 μM): had no effect

effect on [Ca2+]i at low extracellular Ca2+ [1]: evoked no change
Structure (SMILES): CCN(CC)CCCCCCCCOC(=O)c1cc(OC)c(OC)c(OC)c1 [TMB-8]
effect on influx of extracellular Ca2+ ([2]; 100 μM): blocked the influx of extracellular Ca^2+
mode of action at the calcium receptor [1]: partial agonists or allosteric activators
effect on mobilization elicited by extracellular divalent cations [1]: potentiated the mobilization of intracellular Ca^2+; also recorded: potentiated transient increases in [Ca^2+ ]i

effect on [Ca2+]i [1]: mobilize intracellular Ca^2+
Structure (SMILES): NCCNCCNCCNCCN [Tetraethylenepentamine (TEPA), Tetraethylenepentamine]

Structure (SMILES): NC[C@H]1O[C@H](O[C@H]2[C@H](O)[C@@H](O[C@H]3O[C@H](CO)[C@@H](O)[C@H](N)[C@H]3O)[C@H](N)C[C@@H]2N)[C@H](O)[C@@H](O)[C@@H]1O [Kanamycin]
effect on [Ca2+]i ([1]; 500 μM): without effect

Structure (SMILES): CCCC(=O)N[C@@H](Cc1ccc(O)cc1)C(=O)NCCCCNCCCNCCCN [Philanthotoxin-433]
effect on [Ca2+]i ([1]; 500 μM): without effect

Structure (SMILES): CC(N[C@H](C)c1ccccc1)c1cccc2ccccc12 (stereo partly shown) [Compound 4G]
EC50 ([1]; Table 8): 1.8 µM

EC50 ([1]; Table 8): 0.26 µM
Structure (SMILES): CC(C)c1ccc([C@@H](C)N[C@H](C)c2cccc3ccccc23)cc1 [Compound 14L]

Structure (SMILES): COc1ccc(CC(=O)NCCCCCCCCCCCCN)cc1OC [NPS 384]
effect on influx of extracellular Ca2+ ([2]; 300 μM): blocked influx of extracellular Ca^2+
effect on [Ca2+]i [2]: causes a prompt fall in [Ca^2+ ]i
effect on extracellular Ca2+-elicited increases in [Ca2+]i [2]: depresses steady-state, but not transient increases in [Ca^2+ ]i
effect on [Ca2+]i ([1]; NPS 384 300 μM): did not evoke an increase in [Ca^2+ ]i; also recorded: fails to do so

relative potency, in words [1]: as potent as NPS 467
Structure (SMILES): COc1cccc(C(C)NCCC(c2ccccc2)c2ccccc2)c1 (racemic) [meta-Methoxyfendiline]

effect on basal or extracellular Ca2+-evoked [Ca2+]i ([1]; 1 μM): None of the dihydropyridines tested
Structure (SMILES): CCOC(=O)C1=C(C)NC(C)=C(C(=O)OC)C1c1cccc([N+](=O)[O-])c1 (stereo not shown) [nitrendipine]

Structure (SMILES): COC(=O)C1=C(C)NC(C)=C(C(=O)OC)C1c1ccccc1[N+](=O)[O-] [nifedipine]
effect on basal or extracellular Ca2+-evoked [Ca2+]i [1]: None of the dihydropyridines tested

Structure (SMILES): CC(NCCCc1ccccc1)C1CCCCC1 (stereo not shown) [Compound 20V]
EC50 ([1]; Table 7): > 100 µM

Structure (SMILES): O=C(O)CN(CCOCCOCCN(CC(=O)O)CC(=O)O)CC(=O)O [EGTA]
effect on inward currents [3]: prevents oocytes expressing the calcium receptor from responding

Structure (SMILES): NCCNCCNCCN [Triethylenetramine (TETA), triethylenetetramine]
effect on [Ca2+]i [1]: mobilize intracellular Ca^2+

Structure (SMILES): NCCCCCCCCCCCCN [1,12-diaminododecane (DADD), 1,12-diaminododecane]
effect on [Ca2+]i [2]: causes a prompt fall in [Ca^2+ ]i
effect on extracellular Ca2+-elicited increases in [Ca2+]i [2]: depresses steady-state, but not transient increases in [Ca^2+ ]i

effect on basal or extracellular Ca2+-evoked [Ca2+]i ([1]; 1 μM): None of the dihydropyridines tested
Structure (SMILES): CC1=C(C(=O)OC(C)C)[C@@H](c2cccc3nonc23)C([N+](=O)[O-])=C(C)N1 [(-) 202-791]

effect on inward currents [3]: blocks the currents
Structure (SMILES): O=C(O)c1c2ccccc2cc2ccccc12 [Compound 9AC]

EC50 ([1]; Table 8): 0.38 µM
Structure (SMILES): COc1cccc([C@@H](C)N[C@H](C)c2cccc3ccccc23)c1 [Compound 14Y]

Structure (SMILES): N=C(N)NCCC[C@H](N)C(=O)NCCCNCCCNCCCCCNC(=O)[C@H](CC(N)=O)NC(=O)Cc1c[nH]c2cccc(O)c12 [Argiotoxin-659]
effect on [Ca2+]i ([1]; 100 to 300 μM): evoked transient increases in [Ca^2+ ]i

Structure (SMILES): CC(N[C@H](C)c1ccccc1)c1ccc2ccccc2c1 (stereo partly shown) [Compound 4H]
EC50 ([1]; Table 8): ≥ 3 µM

Structure (SMILES): NCCCNCCCCNCCCNCCCN(O)CCCNC(=O)Cc1c[nH]c2ccccc12 [NPS 017]
effect on Cl- current ([3]; BoPCaR 1-injected oocytes): caused oscillatory increases in the Cl^-
effect in control oocytes ([3]; uninjected, water or rat liver mRNA oocytes): Neither NPS 017 nor NPS 019 elicited changes in Cl^-

effect on basal or extracellular Ca2+-evoked [Ca2+]i ([1]; 1 μM): None of the dihydropyridines tested
Structure (SMILES): CC1=C(C(=O)OC(C)C)[C@H](c2cccc3nonc23)C([N+](=O)[O-])=C(C)N1 [(+) 202-791]

effect on basal or extracellular Ca2+-evoked [Ca2+]i ([1]; 1 μM): None of the dihydropyridines tested
Structure (SMILES): COC(=O)C1=C(C)NC(C)=C([N+](=O)[O-])C1c1ccccc1C(F)(F)F (stereo not shown) [BAY K 8644]

relative potency, in words [1]: nearly as potent as the parent molecule
Structure (SMILES): CC(NCCCc1ccccc1)c1ccccc1 (stereo not shown) [Compound 1D]

effect on [Ca2+]i ([1]; 500 μM): without effect
Structure (SMILES): CCC[C@@H]1C[C@@H](C(=O)N[C@@H]([C@H]2O[C@H](SC)[C@H](O)[C@@H](O)[C@H]2O)[C@@H](C)O)N(C)C1 [lincomycin]

effect on [Ca2+]i [1]: mobilize intracellular Ca^2+
Structure (SMILES): NCCCN(CCCN)CCCN(CCCN)CCCCN(CCCN)CCCN(CCCN)CCCN [NPS 381, N^1,N^1,N^5,N^10,N^14,N^14-hexakis-(3-aminopropyl) spermine]

effect on [Ca2+]i at low extracellular Ca2+ [1]: evoked no change
Structure (SMILES): COc1ccc(CCN(C)CCCC(C#N)(c2cc(OC)c(OC)c(OC)c2)C(C)C)cc1OC [Compound D-600]
effect on influx of extracellular Ca2+ ([2]; 100 μM): blocked the influx of extracellular Ca^2+
mode of action at the calcium receptor [1]: partial agonists or allosteric activators
effect on mobilization elicited by extracellular divalent cations [1]: potentiated the mobilization of intracellular Ca^2+

concentration eliciting responses ([3]; BoPCaR 1-injected oocytes, only at much higher concentrations): 100 µM
Structure (SMILES): COc1cccc([C@H](C)NCCCc2ccccc2Cl)c1 [NPS S-568]

Structure (SMILES): CNc1ccc2oc(C[C@H]3O[C@@]4(CC[C@H]3C)O[C@H]([C@H](C)C(=O)c3ccc[nH]3)[C@H](C)C[C@H]4C)nc2c1C(=O)O [Compound A23187]
effect on inward currents [3]: activated

Structure (SMILES): C[C@@H](NCc1ccc(C(C)(C)C)cc1)c1cccc2ccccc12 [Compound 15G]
EC50 ([1]; Table 8): ~0.5 µM
